Blank lines part the entries; values can stand above or below the substance they belong to.
Legend:
[1] = system: complementary DNA; assay: Melting temperature of PNA-DNA complexes (thermal denaturation); format: binding; conditions: for Tm: PNA bound to complementary DNA; for ΔTm: increase over aegPNA 1a-DNA duplex
Source text: Although the stabilizing effect of tetrahydrofuran for PNA-DNA duplex is slightly lower than that of cyclopentane (3d vs 9 and 2a, Table 2), it strikes a balance between water solubility and binding properties and, therefore the combination of those two backbone modifications could be tailor-made to meet the specific requirements.

[2] = system: DNA with a single base mismatch; assay: Discrimination of single base mismatches (Tm of mismatched PNA-DNA duplex); format: binding; conditions: for ΔTm (Tm), TC mismatch: number before the brackets / ΔTm (Tm), TG mismatch: number before the brackets / ΔTm (Tm), TT mismatch: number before the brackets: PNA-DNA duplex with single base mismatch; for ΔTm (Tm), TC mismatch: number in brackets / ΔTm (Tm), TG mismatch: number in brackets / ΔTm (Tm), TT mismatch: number in brackets: against fully matched duplex
Source text: The sequence specificity of thyclotide 3d was examined by determining the change in Tm of a PNA-DNA duplex when a single base mismatch is present. […] The large differences in melting temperature between matched PNA-DNA duplex and mismatch PNA-DNA of thyclotide 3d allows one to control hybridization conditions to exclude the formation of mismatched PNA-DNA by adjust the temperature. Such enhanced single base pair mismatch-discrimination capability could make thyclotide 3d become a powerful tool for the detection of point-mutations and single nucleotide polymorphisms (SNPs).

[3] = CD spectra, conformation of PNA; format: physicochemical
Method: The CD spectra of thyclotides 3a-3d were measured. […] However, in the case of thyclotides 3a-3d, distinct distinctive positive peaks around 220 and 269 nm and negative peaks around 204 and 247 nm were noticed. […] The amplitude of the cotton effects increases as more tetrahydrofuran modifications are introduced.

Substance: G*A*T*G*T*G*A*T*A*-AEEA [3d]
- Tm [1]: 77 °C
- ΔTm [1]: 35 °C
- ΔTm (Tm), TC mismatch: number before the brackets [2]: 50.7
- ΔTm (Tm), TC mismatch: number in brackets [2]: −26.2
- ΔTm (Tm), TG mismatch: number before the brackets [2]: 55.6
- ΔTm (Tm), TG mismatch: number in brackets [2]: −21.4
- ΔTm (Tm), TT mismatch: number before the brackets [2]: 58.2
- ΔTm (Tm), TT mismatch: number in brackets [2]: −18.8
- difference in melting temperature between fully matched duplex and duplex with a single base mismatch (ΔTm), in words ([2]; compared with aegPNA, tcypPNA 2a and mixPNA 9): significantly higher than that of the corresponding aegPNA

Substance: GAT*GTGAT*A-AEEA [3b]
- Tm [1]: 49.7 °C
- ΔTm [1]: 7.7 °C

- CD spectrum / conformation [3]: does not show any distinct peaks
Substance: GATGTGATA-AEEA [1a, reference compound]
- Tm [1]: 42.0 °C
- ΔTm (Tm), TC mismatch: number before the brackets [2]: 22.9
- ΔTm (Tm), TC mismatch: number in brackets [2]: −19.2
- ΔTm (Tm), TG mismatch: number before the brackets [2]: 25.4
- ΔTm (Tm), TG mismatch: number in brackets [2]: −16.6
- ΔTm (Tm), TT mismatch: number before the brackets [2]: 28.2
- ΔTm (Tm), TT mismatch: number in brackets [2]: −13.8

Substance: G#A#T#G#T#G#A#T#A#-AEEA [2a, reference compound]
- Tm [1]: 93.7 °C
- ΔTm [1]: 51.7 °C
- ΔTm (Tm), TC mismatch: number in brackets [2]: −30.6
- ΔTm (Tm), TG mismatch: number in brackets [2]: −20.6
- ΔTm (Tm), TT mismatch: number in brackets [2]: −22.8

Substance: GAT*GT*GAT*A-AEEA [3c]
- Tm [1]: 54.9 °C
- ΔTm [1]: 12.9 °C

Substance: GATGT*GATA-AEEA [3a]
- Tm [1]: 44.7 °C
- ΔTm [1]: 2.7 °C

Substance: G*A*T*G#T#G#A*T*A*-AEEA [compound 9]
- Tm [1]: 84.5 °C
- ΔTm [1]: 42.5 °C
- ΔTm (Tm), TC mismatch: number before the brackets [2]: 57.7
- ΔTm (Tm), TC mismatch: number in brackets [2]: −27.4
- ΔTm (Tm), TG mismatch: number in brackets [2]: −20.3
- ΔTm (Tm), TT mismatch: number in brackets [2]: −19.5

Source: US20230242587A1, “THYCLOTIDES” (The United States of America,as represented by the …, priority 2020, published 2023)
